US6492374B2, “Benzofuran derivatives, their preparation and use” (H. Lundbeck A/S, priority 1998, dated 2002)
Like-named read-outs stand apart in the source and are kept apart here.

How the values were obtained:
[1] = target: T1, cloned human 5-HT1A receptors (Homo sapiens, UniProt P08908); assay: Inhibition of 3H-5-CT binding to human 5-HT1A receptors
T1 construct: expressed in transfected cells; host or cells: HeLa cells (HA7), stably transfected; cell homogenate
T1 sequence (P08908 1-422): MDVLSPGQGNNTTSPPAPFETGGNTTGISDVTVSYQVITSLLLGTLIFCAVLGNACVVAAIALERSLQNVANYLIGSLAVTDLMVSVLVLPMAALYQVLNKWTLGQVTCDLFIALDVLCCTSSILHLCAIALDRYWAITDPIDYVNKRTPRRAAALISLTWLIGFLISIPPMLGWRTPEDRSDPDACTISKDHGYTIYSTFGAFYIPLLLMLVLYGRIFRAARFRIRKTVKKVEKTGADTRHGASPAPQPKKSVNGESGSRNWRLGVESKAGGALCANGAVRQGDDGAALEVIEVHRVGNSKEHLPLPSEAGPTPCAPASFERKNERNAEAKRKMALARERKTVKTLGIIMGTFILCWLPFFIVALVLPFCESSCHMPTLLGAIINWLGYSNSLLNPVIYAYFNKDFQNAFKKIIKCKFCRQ
Experimental: Inhibition of ^3H-5CT Binding to Human 5-HT1A Receptors
Human 5-HT1A receptors (40 μg of cell homogenate) were incubated for 15 minutes at 37° C. in 50 mM Tris buffer at pH 7.7 in the presence of ^3H-5-CT. Non-specific binding was determined by including 10 μM of metergoline. The reaction was terminated by rapid filtration through Unifilter GF/B filters on a Tomtec Cell Harvester. Filters were counted in a Packard Top Counter.

[2] = test system: serotonin reuptake (3H-5-HT uptake into whole rat brain synaptosomes); assay: Inhibition of 3H-5-HT uptake into rat brain synaptosomes; assay type: biochemical
Experimental: Inhibition of ^3H-5HT Uptake Into Rat Brain Synaptosomes
Using this method, the ability of drugs to inhibit the accumulation of ^3H-5-HT into whole rat brain synaptosomes is determined in vitro.

[3] = cloned human 5-HT1A receptors expressed in HeLa cells (HA7)

Row | SMILES | IC50 [1, 3] [nM] | Inhibition of serotonin reuptake % inhibition at 100 nM [2] [% inh. at 100 nM] | IC50 [2] [nM] | IC50 [1] [nM]
1 | CN(CCCC1(c2ccc(F)cc2)OCc2cc(C#N)ccc21)CCOc1ccccc1 (stereo not drawn) [Compound 4g, 1-(4-Fluorophenyl)-1-[3-[[2-phenoxyethyl]methylamino]propyl]-1,3-dihydroisobenzofuran-5carbonitrile] | 18 | 28 | – | –
2 | CCN(CCCc1c[nH]c2ccccc12)CCCC1(c2ccc(F)cc2)OCc2cc(C#N)ccc21 (stereo not drawn) [Compound 12f] | 4.7 | – | 13 | –
3 | COc1ccccc1OCCN(C)CCCC1(c2ccc(F)cc2)OCc2cc(C#N)ccc21 (stereo not drawn) [Compound 2b, 1-(4-Fluorophenyl)-1-[3-[[2-(2-methoxyphenoxy)ethyl]methylamino]propyl]-1,3-dihydroisobenzofuran-5-carbonitrile] | 6.4 | – | 40 | –
4 | C=CCN(CCCc1ccccc1OC)CCCC1(c2ccc(F)cc2)OCc2cc(C#N)ccc21 (stereo not drawn) [Compound 4k, 1-(4-Fluorophenyl)-1-[3-[[3-(2-methoxyphenyl)propyl](prop-2-en-1-yl)amino]propyl]-1,3-dihydroisobenzofuran-5-carbonitrile] | 0.42 | – | 100 | –
5 | CCN(CCCc1c[nH]c2c(F)cccc12)CCCC1(c2ccc(F)cc2)OCc2cc(C#N)ccc21 (stereo not drawn) [Compound 12p, 1-[3-[Ethyl[3-(7-fluoro-1H-indol-3-yl)propyl]amino]propyl]-1-(4-fluorophenyl)-1,3-dihydroisobenzofuran-5carbonitrile] | 19 | – | 11 | –
6 | CCN(CCCC1(c2ccc(F)cc2)OCc2cc(C#N)ccc21)CCc1c[nH]c2ccc(F)cc12 (stereo not drawn) [Compound 12j, 1-[3-[Ethyl[2-(5-fluoro-1H-indol-3-yl)ethyl]amino]propyl]-1-(4fluorophenyl)-1,3-dihydroisobenzofuran-5-carbonitrile] | 7.9 | – | 14 | –
7 | COc1ccccc1CCCN(C)CCCC1(c2ccc(F)cc2)OCc2cc(C#N)ccc21 (stereo not drawn) [Compound 4j, 1-(4Fluorophenyl)-1-[3-[[3-(2-methoxyphenyl)propyl]methylamino]propyl]-1,3-dihydroisobenzofuran-5-carbonitrile] | 6.1 | – | 78 | –
8 | C=CCN(CCCC1(c2ccc(F)cc2)OCc2cc(C#N)ccc21)CCc1c[nH]c2c(C)ccc(Cl)c12 (stereo not drawn) [Compound 13j, 1-[3-[[2-(4-Chloro-7-methyl-1H-indol-3-yl)ethyl](prop-2-en-1-yl)amino]propyl]-1-(4-fluorophenyl)-1,3-dihydroisobenzofuran-5-carbonitrile] | 16 | 61 | – | –
9 | CN(CCCc1c[nH]c2ccc(Br)cc12)CCCC1(c2ccc(F)cc2)OCc2cc(C#N)ccc21 (stereo not drawn) [Compound 12aa, 1-[3-[[3-(5-Bromo-1H-indol-3-yl)propyl]methylamino]propyl]-1-(4-fluorophenyl)-1,3-dihydroisobenzofuran-5-carbonitrile] | 16 | 37 | – | –
10 | C=CCN(CCCC1(c2ccc(F)cc2)OCc2cc(C#N)ccc21)CCc1c[nH]c2ccccc12 (stereo not drawn) [Compound 4h, 1-[3-[[2-(1H-Indolyl-3-yl)ethyl](prop-2-en-1-yl)amino]propyl]-1-(4-fluorophenyl) 1,3-dihydroisobenzofuran-5carbonitrile] | 3.2 | – | 69 | –
11 | CN(CCCc1c[nH]c2ccccc12)CCCC1(c2ccccc2)OCc2ccccc21 (stereo not drawn) [Compound 2g, 1-[3-[[3-(1H-Indol-3-yl)propyl]methylamino]propyl]-1-phenyl-1,3-dihydroisobenzofuran] | 40 | – | 20 | –
12 | COc1cccc(CCN(C)CCCC2(c3ccc(F)cc3)OCc3cc(C#N)ccc32)c1 (stereo not drawn) [Compound 4b, 1-(4-Fluorophenyl)-1-[3-[[2-(3-methoxyphenyl)ethyl]methylamino]propyl]-1,3-dihydroisobenzofuran-5-carbonitrile] | 63 | 59 | – | –
13 | CN(CCCCc1c[nH]c2ccccc12)CCCC1(c2ccccc2)OCc2ccccc21 (stereo not drawn) [Compound 2e, 1-[3-[[4-(1H-Indol-3-yl)butyl]methylamino]propyl]1-phenyl-1,3-dihydroisobenzofuran] | 38 | – | 15 | –
14 | Cc1ccc2[nH]cc(CCCN(C)CCCC3(c4ccc(F)cc4)OCc4cc(F)ccc43)c2c1 (stereo not drawn) [Compound 12c, 5-Fluoro-1-[3-[[3-(5-methyl-1H-indol-3-yl)propyl]methylamino]propyl]-1-(4-fluorophenyl)-1,3-dihydroisobenzofuran] | 19 | – | 17 | –
15 | CN(CCCc1c[nH]c2ccc(Cl)cc12)CCCC1(c2ccc(F)cc2)OCc2cc(C#N)ccc21 (stereo not drawn) [Compound 12r, 1-[3-[[3-(5-Chloro-1H-indol-3-yl)propyl]methylamino]propyl]-1-(4-fluorophenyl)-1,3-dihydroisobenzofuran-5-carbonitrile] | 16 | 47 | – | –
16 | C=CCN(CCCC1(c2ccc(F)cc2)OCc2cc(C#N)ccc21)CCOc1ccccc1 (stereo not drawn) [Compound 4i, 1-(4-Fluorophenyl)-1-[3-[[2-phenoxyethyl](prop-2-en-1-yl)amino]propyl]-1,3-dihydroisobenzofuran-5carbonitrile] | 1.9 | 26 | – | –
17 | C=CCN(CCCC1(c2ccc(F)cc2)OCc2cc(C#N)ccc21)CCc1cc(OC)ccc1OC (stereo not drawn) [Compound 4f, 1-[3-[[2-(2,5-Dimethoxyphenyl)ethyl](prop-2-en-1-yl)amino]propyl]-1-(4-fluorophenyl)-1,3-dihydroisobenzofuran-5-carbonitrile] | 1.6 | 4 | – | –
18 | COc1ccc(OC)c(CCN(C)CCCC2(c3ccc(F)cc3)OCc3cc(C#N)ccc32)c1 (stereo not drawn) [Compound 4e, 1-[3-[[2-(2,5-Dimethoxyphenyl)ethyl]methylamino]propyl]-1-(4-fluorophenyl)-1,3-dihydroisobenzofuran-5-carbonitrile] | – | – | 160 | 17
19 | C=CCN(CCCOc1ccccc1OC)CCCC1(c2ccc(F)cc2)OCc2cc(C#N)ccc21 (stereo not drawn) [Compound 4n, 1-(4-Fluorophenyl)-1-[3-[[3-(2-methoxyphenoxy)propyl](prop-2-en-1-yl)amino]propyl]-1,3-dihydroisobenzofuran-5-carbonitrile] | 14 | 39 | – | –
20 | CCN(CCCc1c[nH]c2ccc(Cl)cc12)CCCC1(c2ccc(F)cc2)OCc2cc(C#N)ccc21 (stereo not drawn) [Compound 12x, 1-[3-[[3-(5-Chloro-1H-indol-3-yl)propyl]ethylamino]propyl]-1-(4-fluorophenyl)-1,3-dihydroisobenzofuran-5-carbonitrile] | 14 | 50 | – | –
21 | CCN(CCCC1(c2ccc(F)cc2)OCc2cc(C#N)ccc21)CCc1c[nH]c2c(F)cccc12 (stereo not drawn) [Compound 12k] | 3.6 | – | 8.4 | –
22 | CCN(CCCc1c[nH]c2ccc(I)cc12)CCCC1(c2ccc(F)cc2)OCc2cc(C#N)ccc21 (stereo not drawn) [Compound 12af, 1-[3-[Ethyl[3-(5-iodo-1H-indol-3-yl)propyl]amino]propyl]-1-(4-fluorophenyl)-1,3-dihydroisobenzofuran-5-carbonitrile] | 31 | 38 | – | –
23 | CCCN(CCCC1(c2ccc(F)cc2)OCc2cc(C#N)ccc21)CCc1c[nH]c2c(F)cc(F)cc12 (stereo not drawn) [Compound 13g, 1-[3-[[2-(5,7-Difluoro-1H-indol-3-yl)ethyl]propylamino]propyl]-1-(4-fluorophenyl)-1,3-dihydroisobenzofuran-5-carbonitrile] | 18 | 49 | – | –
24 | CCN(CCCC1(c2ccc(F)cc2)OCc2cc(C#N)ccc21)CCc1c[nH]c2ccc(I)cc12 (stereo not drawn) [Compound 12ae] | 11 | 49 | – | –
25 | CN(CCCc1c[nH]c2ccccc12)CCC[C@@]1(c2ccc(F)cc2)OCc2cc(C#N)ccc21 [Compound 2f, (S)-1-[3-[[3-(1H-Indol-3-yl)propyl]methylamino]propyl]-1-(4-fluorophenyl)-1,3-dihydroisobenzofuran-5-carbonitrile] | 8.6 | – | 14 | –
26 | CCN(CCCc1c[nH]c2ccc(F)cc12)CCCC1(c2ccc(F)cc2)OCc2cc(C#N)ccc21 (stereo not drawn) [Compound 12q, 1-[3-[Ethyl[3-(5-fluoro-1H-indol-3-yl)propyl]amino]propyl]-1-(4-fluorophenyl)-1,3-dihydroisobenzofuran-5carbonitrile] | 12 | – | 6.3 | –
27 | CN(CCCc1c[nH]c2c(F)cccc12)CCCC1(c2ccc(F)cc2)OCc2cc(F)ccc21 (stereo not drawn) [Compound 12d, 5-Fluoro-1-[3-[[3-(7-fluoro-1H-indol-3-yl)propyl]methylamino]propyl]-1-(4-fluorophenyl)-1,3dihydroisobenzofuran] | 31 | – | 12 | –
